Three compounds from patent publication US20040229895A1, “Tetracyclic benzamide derivatives and methods of use thereof” (Inotek Pharmaceuticals Corporation, priority 2003, published 2004) can be followed below.

The target of this assay is T1, PARP (Mus musculus, UniProt P11103).
T1 construct: endogenous in cells; host or cells: RAW mouse macrophages
Description: PARP activation in peroxynitrite-stimulated cultured macrophages, whole-cell based assay (3H-NAD+ incorporation). The conditions noted are these: RAW mouse macrophages, peroxynitrite-induced PARP activation, 10 min pretreatment; for inhibition at 0.3 µM: 300 nM; for inhibition at 0.1 µM: 100 nM. The protocol: RAW mouse macrophages were cultured in DMEM medium with high glucose and supplemented with 10% fetal bovine serum. Cells were used at 80% confluence in 12-well plates. Cells were pretreated with various concentrations (100 nM-1 μM) of a Tetracyclic Benzamide Derivative for 10 min. Peroxynitrite, a prototypical oxidant which induces DNA single strand breakage, was used to induce PARP activation. Peroxynitrite was diluted in phosphate buffered saline (PBS) (pH 11.0) and added to the cells in a bolus of 50 μl. Cells were then incubated for 20 min. […] After the 20 min incubation, the cells were spun, the medium was aspirated and the cells were resuspended in 0.5 mL assay buffer (56 mM HEPES pH 7.5, 28 mM KCl, 28 mM NaCl, 2 mM MgCl2, 0.01% w/v digitonin and 0.125 μM NAD^+ and 0.5 μCi/ml ^3H-NAD^+). Following an incubation in assay buffer, (10 min at 37° C.), PARP activity was measured as follows: 200 μl ice cold 50% w/v TCA was added and the samples were incubated for 4 h at 4° C. Samples were then spun (10 min @ 10,000 g) and pellets washed twice with ice cold 5% w/v TCA and solubilized overnight in 250 μl 2% w/v SDS/0.1 N NaOH at 37° C. The contents of the tubes were added to 6.5 mL ScintiSafe Plus scintillation liquid (Fisher Scientific) and radioactivity was determined using a liquid scintillation counter (Wallac, Gaithersburg, Md.).

Molecules are shown by their SMILES.

T1 sequence (P11103 whole entry): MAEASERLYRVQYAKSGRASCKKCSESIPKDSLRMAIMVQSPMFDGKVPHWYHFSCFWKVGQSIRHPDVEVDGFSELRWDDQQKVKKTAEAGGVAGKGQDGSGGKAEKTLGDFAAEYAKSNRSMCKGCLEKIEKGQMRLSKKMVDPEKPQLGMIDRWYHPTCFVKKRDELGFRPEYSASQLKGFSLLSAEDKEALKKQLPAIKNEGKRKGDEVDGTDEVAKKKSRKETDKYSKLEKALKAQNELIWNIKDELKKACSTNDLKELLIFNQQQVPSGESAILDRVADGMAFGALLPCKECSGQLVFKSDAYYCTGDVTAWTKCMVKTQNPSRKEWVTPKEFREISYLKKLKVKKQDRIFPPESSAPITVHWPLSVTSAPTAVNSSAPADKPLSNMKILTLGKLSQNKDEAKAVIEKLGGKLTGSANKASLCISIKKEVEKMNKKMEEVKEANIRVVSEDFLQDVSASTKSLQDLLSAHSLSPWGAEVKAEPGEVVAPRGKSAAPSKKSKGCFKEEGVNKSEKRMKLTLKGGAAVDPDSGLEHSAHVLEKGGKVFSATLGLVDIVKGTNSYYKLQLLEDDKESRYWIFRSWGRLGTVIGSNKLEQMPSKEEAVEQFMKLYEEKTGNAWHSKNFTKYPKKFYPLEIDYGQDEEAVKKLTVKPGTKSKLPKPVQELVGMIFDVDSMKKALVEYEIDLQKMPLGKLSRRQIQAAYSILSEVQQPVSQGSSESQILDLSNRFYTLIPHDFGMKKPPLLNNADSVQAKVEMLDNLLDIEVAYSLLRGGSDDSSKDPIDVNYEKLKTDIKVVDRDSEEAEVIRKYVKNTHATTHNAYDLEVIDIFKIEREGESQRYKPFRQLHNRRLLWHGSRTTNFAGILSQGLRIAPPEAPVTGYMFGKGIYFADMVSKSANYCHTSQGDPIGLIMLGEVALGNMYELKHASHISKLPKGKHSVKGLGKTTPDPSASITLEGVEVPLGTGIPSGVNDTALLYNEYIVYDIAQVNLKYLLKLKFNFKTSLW

Usually inhibition stands for the relative decrease from the control value, in per cent. Turning to `O=c1[nH]c2c(c3ccccc13)-c1ccc(S(=O)(=O)NCCCN3CCOCC3)cc1C2` [Compound 11a, 5-Oxo-5,7-dihydro-6H-indeno[2,1-c]isoquinoline-9-sulfonic acid (3-morpholin-4-yl-propyl)-amide], the inhibition at 0.3 µM worked out at 9% and the inhibition at 1 µM is 70%.
`CC(=O)Oc1nc2c3ccccc3oc2c2ccccc12` [Compound 16g, Acetic acid 11-oxa-6-aza-benzo[a]fluoren-5-yl ester]: the inhibition at 0.1 µM came to 40%, the inhibition at 0.3 µM amounted to 66% and the inhibition at 1 µM amounted to 67%.
Consider `Cc1ccc2c(n1)oc1c3ccccc3c(=O)[nH]c21` [Compound 26a, 9-Methyl-6H-11-oxa-6,10-diaza-benzo[a]fluoren-5-one], for which the inhibition at 0.1 µM was found to be 36%, the inhibition at 0.3 µM came to 54% and the inhibition at 1 µM is 61%.
